This is an account of results in article PMC9179882 (Cancers, 2022).

Test [1] concerns SW620 cells. Briefly: Resazurin cytotoxic assay, metastatic SW620. The following applies: Homo sapiens, SW-620, 48 h, mean ± SD. It counts as cell-based, human. The method, then:
(§1) CRL1790, SW480 and SW620 cell lines were purchased from American Type Culture Collection (ATCC). Cells were cultured at 37 °C with 5% CO2 atmosphere in medium supplemented with 10% fetal bovine serum (10270106, Gibco, Waltham, MA, USA), 10 mg/mL penicillin, 10 mg/mL streptomycin, […] amphotericin, and 0.03% L-Glutamine as recommended by the ATCC. MEM medium (M5650, Merck, Darmstadt, Germany) was used for non-tumoral CRL1790, and RPMI 1640 medium (L0501-500, Biowest, Nuaillé, France) was used for both tumoral SW480 and SW620 cell lines.
(§2) Cytotoxic activity was screened using Resazurin Fluorimetric Assay (R7017, Merck, Darmstadt, Germany), according to the manufacturer’s protocol. Cells seeded into 96-well plates (8 × 10^3 cells/well) were treated for 48 h with phenolic compounds at increasing concentrations from 2 × 10^−5 µM to 100 µM. Negative control with vehicle DMSO was included. Fluorescence was determined using Nanoquant Infinite M200 Pro multi-plate reader (Tecan). Half-maximal inhibitory concentration (IC50) values were determined in triplicate by non-linear regression with Graphpad (Prism).
(§3) Natural products such as phenolic compounds have recently attracted significant attention for their anticancer properties. […] We used three different cell lines to mimic CRC progression. In particular, CRL1790 are colon epithelial cells simulating the non-tumoral stage. In addition, SW480 is Dukes’ type B colorectal adenocarcinoma cells representing the primary tumor. Finally, SW620 constitutes Dukes’ type C colorectal adenocarcinoma derived from metastasic site cells to mimic the most aggressive metastasic stage. […] Cytotoxic potency upon 48 h treatment with phenolic compounds was examined by determination of half-maximal inhibitory concentration (IC50) values using the Resazurin method (Table 1). Only GA inhibited cell growth in SW480 and SW620 at clinically-relevant concentrations (IC50 values lower than 30 µM).

Test [2] concerns CRL1790 cells. Put plainly: Resazurin cytotoxic assay, non-tumoral CRL1790. It counts as cell-based. The conditions noted are these: Homo sapiens, Epithelial cell, CRL1790 non-tumoral colon epithelial cells, 48 h, mean ± SD. The protocol:
as §1, §2, §3

For test [3], the system named is SW480 cells. Put plainly: Resazurin cytotoxic assay, tumoral SW480. It counts as cell-based, human. The following applies: Homo sapiens, SW480, 48 h, SW480 primary tumor cells, mean ± SD. The protocol: as §1, §2, §3
For orientation: Resazurin is reduced to fluorescent resorufin, in cell work by metabolically active cells.

Test [4] concerns γH2AX in SW480 cells. Briefly: Western blot of γH2AX (DNA damage). It counts as cell-based, human. The conditions noted are these: SW480, CX5461 10 µM for 6 h. In general terms: A western blot detects proteins with antibodies after separation by electrophoresis.
From the text: Protein extract from different experimental conditions was extracted using RIPA lysis buffer containing 1% PMSF (P7626, Merck, Darmstadt, Germany), 1% protease inhibitor cocktail (PIC) (P8340, Merck, Darmstadt, Germany), and 1% sodium orthovanadate (S6508, Merck, Darmstadt, Germany). Quantification of protein levels was achieved by Bradford method following manufacturer’s protocol (500-0006, BioRad, Hercules, CA, USA). Protein content was loaded on 12% SDS-polyacrylamide gel (1610148, BioRad, Hercules, CA, USA) for electrophoresis and wet transferred to nitrocellulose membranes (66485, Pall corporation, New York, NY, USA). Membranes were blocked with 5% semi-skimmed milk and incubated overnight at 4 °C with antibodies for γH2AX and actin as housekeeping. Then, membranes were incubated with horseradish peroxidase-labeled antibodies for 1 h at RT. After luminal solution (1705060, BioRad, Hercules, CA, USA) incubation, chemiluminiscence signals were measured using Image Quant LAS 4000 (GE Healthcare Life Sciences). […] Protein levels were quantified by ImageJ.
Then, we investigated DNA damage response because the induction of double-strand breaks is a well-known G4s stabilization associated effect [20]. To this end, we measured the phosphorylation of histone H2AX on Ser-139 (γH2AX), a DNA damage marker, by Western Blot.
Test [5] deals with G4-enriched genes (5′ETS, BCL2, CMYB, CMYC, KRAS, VEGFA) in SW480 cells. Put plainly: qRT-PCR of G4-enriched genes. It counts as cell-based, human. The conditions noted are these: SW480, CX5461 10 µM for 6 h. On the technique in general: In qPCR the cycle at which signal appears reflects the starting amount.
Method: Total cellular RNA was isolated from different experimental group cells using Trizol Reagent (15596, Invitrogen, Waltham, MA, USA). Reverse transcription was conducted using RevertAid First Strand cDNA Synthesis Kit (K1622, Thermo Scientific, MA, USA) according to manufacturer’s protocol with random primers. Quantitative PCR was performed with SYBR Green (4309155, Thermo Scientific, MA, USA) on 7900HT Fast Real-time PCR System (Applied Biosystems). Target mRNA levels were normalized to actin (ΔCt), and fold change was determined using the 2^−ΔΔCt method. Experiments were conducted in triplicate.
In this context, we aimed to analyze whether GA affects the transcription of G4-enriched genes by qRT-PCR. In the case of ribosomal DNA, we measured the short-lived 5′ external transcribed spacer (5′ETS) of the pre-RNA, whichreflects the ribosomal RNA synthesis rate [19].
Test [6] deals with G4 structures in SW480 cells. Put plainly: BG4 immunofluorescence (G4 stabilization in cells). It counts as cell-based, human. The following applies: SW480, CX5461 10 µM for 6 h, positive control.
Method: Cells were seeded on 13 mm circular coverslips and placed in 24-well plates. After exposure to different experimental conditions, fixation was performed with 4% (v/v) paraformaldehyde (P6148, Merck, Darmstadt, Germany) for 10 min at room temperature (RT), permeabilization with 0.1% (v/v) Triton-X100 (T8787, Merck, Darmstadt, Germany) for 10 min and blocking with 10% bovine serum albumin (A7906, Merck, Darmstadt, Germany) containing 0.5% (v/v) Triton-X100 for 30 min at RT. Primary antibodies were incubated for 1 h at RT and secondary antibodies for 30 min at 4 °C in darkness. Finally, all coverslips were mounted onto slides (J2800AMNZ, Thermo scientific, Waltham, MA, USA), including DAPI (4′,6-diamidino-2-phenylindole) for nuclear counterstain. Images were acquired on a Confocal Zeiss LSM 710 inverted microscope with a 63× immersion objective. In a different manner, BG4 immunofluorescence was conducted as previously described [11]. BG4 mean nuclear fluorescence intensity was quantified using Fiji software (N > 250).

Where only a bound is given, the exact number is not on record here.

On to `OC[C@H]1O[C@@H](Oc2cc(O)cc(/C=C/c3ccc(O)cc3)c2)[C@H](O)[C@@H](O)[C@@H]1O` [Piceid, piceid], for which the IC50 in test [1], in test [2] and in test [3] was more than 100 µM each time.
In the case of `Oc1ccc(/C=C/c2cc(O)cc(O)c2)cc1` [Resveratrol, resveratrol], the IC50 in test [1], in test [2] and in test [3] was more than 100 µM each time.
`OCCc1ccc(O)c(O)c1` [Hydroxytyrosol, hydroxytyrosol]: the IC50 (as a rule, the midpoint of a concentration-inhibition curve) was 71.9 ± 3.52 µM in test [1], more than 100 µM in test [2] and more than 100 µM in test [3].
For `OCCc1ccc(O)cc1` [Tyrosol, tyrosol], the IC50 in test [1], in test [2] and in test [3] was more than 100 µM each time.
On to `Cc1cnc(CNC(=O)c2c(=O)c3ccc(N4CCCN(C)CC4)nc3n3c2sc2ccccc23)cn1` [CX5461], for which, in test [4], the “DNA damage (γH2AX protein levels)” value is listed as “significantly induced DNA damage”. In test [5], the “transcription of G4-enriched genes” value is given as “influenced the expression levels of some of these genes”. In addition, the “nuclear BG4 signal” value in test [6] was “A similar effect was observed”.
